Experimental data as given in patent US8628788B2, “Formulations containing a non-oxidative biocide and a source of active halogen and use thereof in water treatment” (Bromine Compounds, Ltd., priority 2006, dated 2014).

Test system: Pseudomonas aeruginosa (ATCC 15442)
Assay: Simulated biofilm (bacteria entrapped in alginate gel beads)
Type: cell-based
Conditions: 2.5 ppm DBNPA, 30 minutes contact time
Source text: The biofilm simulation was created by entrapping bacteria in alginate gel beads.

N#CC(Br)(Br)C(N)=O [DBNPA, 2,2-Dibromo-3-nitrilopropionamide]
log reduction (as compared to control): 3 log reduction
